Here are results for 3 compounds from US20250017942A1, “Prevention and treatment of osteoarticular diseases by inhibiting acetylcholinesterase” (priority 2021, published 2025).

Counter-ions that a name gives are not always drawn.

The target in experiment [1] is AChE (rat cortex homogenate) (Rattus norvegicus, UniProt P37136). The experiment in a line: biochemical. It counts as biochemical. The settings on record: for IC50: rat cortex homogenate, in the presence of ethopropazine as a specific BuChE inhibitor.
The test system of the next experiment is ATDC5 cells. The experiment in a line: IL-1β-stimulated ATDC5 cells, marker expression by qPCR. The experiment is classed as cell-based, mouse. As to conditions: 10 ng/ml IL-1β, 24 h, qPCR (FIG. 3A).
A further experiment deals with RAW 264.7 cells. As to the kind of experiment: RANKL-induced osteoclastogenesis of RAW 264.7 cells. The experiment is classed as cell-based, mouse. The settings on record: RAW 264.7, RANKL 15 ng/ml 3 days, 0.1, 0.5 and 1 μM (FIG. 9).

AChE (rat cortex homogenate), sequence (P37136 32-614): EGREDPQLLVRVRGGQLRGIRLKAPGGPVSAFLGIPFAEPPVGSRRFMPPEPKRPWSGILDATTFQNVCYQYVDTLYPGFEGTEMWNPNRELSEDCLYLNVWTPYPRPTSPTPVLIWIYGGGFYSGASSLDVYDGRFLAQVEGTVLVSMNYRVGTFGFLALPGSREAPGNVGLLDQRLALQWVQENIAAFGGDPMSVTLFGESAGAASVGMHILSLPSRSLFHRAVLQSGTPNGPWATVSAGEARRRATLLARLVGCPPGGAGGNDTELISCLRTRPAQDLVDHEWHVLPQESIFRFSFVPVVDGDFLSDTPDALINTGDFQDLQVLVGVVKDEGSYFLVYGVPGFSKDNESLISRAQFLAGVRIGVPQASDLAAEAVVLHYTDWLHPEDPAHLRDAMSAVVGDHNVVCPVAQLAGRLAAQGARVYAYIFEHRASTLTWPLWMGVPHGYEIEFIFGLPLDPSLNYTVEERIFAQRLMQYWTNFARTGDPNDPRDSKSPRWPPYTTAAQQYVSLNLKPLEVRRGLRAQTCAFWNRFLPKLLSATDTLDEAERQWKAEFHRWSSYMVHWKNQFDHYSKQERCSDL

Turning to `O=c1ccc2c([nH]1)CCCC2NCCCCCCCCCCCNC1CCCc2[nH]c(=O)ccc21` (stereo not drawn) [E11E], the IC50 in experiment [1] was found to be 84 ± 5 nM.
Take `O=c1ccc2c([nH]1)CCC[C@@H]2NCCCCCCCCCCCCN[C@H]1CCCc2[nH]c(=O)ccc21` [E12E, (S,S)-(−)-N, N′-di-5′-(5′, 6′7′,8′-tetrahydroquinolin-2-onyl)-1,12-diaminododecane, bis-hydrochloride]: in experiment [1], the “Potency in inhibiting rat brain AChE relative to HA” value is listed as “about twice as potent as HA” and the “Potency in inhibiting rat brain AChE relative to tacrine” value is “about 4.4 times”. In the experiment with ATDC5 cells, the “Pro-inflammatory cytokine expression after IL-1β stimulation” value is on record as “down-regulating key pro-inflammatory cytokines including TNF-alpha”. Also, the Osteoclastogenesis result in the experiment on RAW 264.7 cells was “suppressed osteoclastogenesis in a dose-dependent manner”.
With `O=c1ccc2c([nH]1)CCCC2NCCCCCCCCCCCCCNC1CCCc2[nH]c(=O)ccc21` (stereo not drawn) [E13E], the IC50 in experiment [1] is 52 ± 9 nM.
